Patent US6383771B1, “Enzyme-based assay for determining effects of exogenous and endogenous factors on cellular energy” (Birkmayer Pharmaceuticals, priority 1997, dated 2002)
Where “and” joins values, the source holds several entries; their conditions need not be identical. Equal entries are not always repeated.

How the values were obtained:
[1] = tested on: complex I; conditions: metabolite of MPTP; cited from earlier work
[2] = tested on: NADH cytochrome C reductase; conditions: certain brain areas; causing Parkinsonian-like symptoms; cited from earlier work
[3] = Physical performance on the treadmill or bicycle ergometer, soccer players; format: in vivo, human; conditions: 5-mg tablet NADH daily, one month
Description: A study similar to that of Example 3 was performed with a European soccer team. […] This increased energy production was confirmed by improved physical performance on the treadmill or bicycle ergometer.

[4] = Lactate blood levels after maximum performance; format: in vivo, human
Description: (§1) The performance quality, reaction speed and constancy of attention also was tested in these athletes. The performance quality was assessed by the accuracy with which a task was done, i.e., generally in terms of the number of correct identifications of stimuli. Methods used for determination of performance quality were measurement of the continuous attention, vigilance, and the cognitrone program of the Vienna Test system (Dr. Schuhfried Ges.m.b.H., Austria). For examination of the physical performance, a bicycle ergometer (Oxycon-Alpha, Jager Inc., Vienna, Austria) was used. […] The volume and the intensity of the training and exercise program of the athletes was kept constant over that period. […] Data reflecting this is presented below in Tables 2-4.

[5] = tested on: NADH cytochrome C reductase; test: NADH cytochrome C reductase assay of whole blood, competitive cyclists before and after oral NADH; format: in vivo, human
Description: (§2) Enzyme Preparation A 1-mL portion of a whole blood sample obtained from a subject by venipuncture is preserved by addition of a suitable preserving agent such as that provided by a citrate solution. To a 100-μL sample of this citrate blood is added 900 μL of phosphate balanced salt solution (PBS) at pH =7.8. The resulting 1-mL portion of buffer-diluted citrate blood is sonified with an apparatus such as that available from BRANSON at a duty cycle of 40%, output position 3. Sonification is repeated a total of ten times for 10 seconds each. An additional 1-mL volume of PBS is added to the sonified solution. The PBS-diluted solution represents the enzyme preparation utilized for further assay.
(§3) Substrate preparation A 10-mg sample of cytochrome C, obtainable from conventional sources such as Sigma Chemical, St. Louis is dissolved in 9.6 mL of distilled water. To this is added add 200 μL of 0.1 M NaN3 (sodium azide) and 200 μL of PBS (pH 7.8).
(§4) Performance of the enzyme assay A 900-μL volume of cytochrome C solution (reaction substrate) is pipetted into a 1-mL (PMMA) cuvette. The sample is mixed and allowed to incubate for 15 minutes at 37°. A 100-μL volume of enzyme preparation is added to the sample cuvette and mixed thoroughly. The absorption of reduced cytochrome C at 550 nm is measured exactly 60 seconds after addition of the enzyme preparation to the cuvette. The absorption of cytochrome C at 550 nm is again measured after 5 minutes of incubation at 37° C. after the first measurement. […]
(§5) Determination of enzymatic activity The specific activity of the enzyme species is expressed as nanomoles (nmol) of cytochrome C reduced per μL blood per 5 minutes. For quantitative analyses, a calibration curve with 0, 30, 50, 100, 130 nmol reduced cytochrome C concentrations is prepared. For calculation of the enzymatic activity expressed per blood cell, the number of red blood cells, white blood cells and IS platelets are determined. The cell counts of these cells can be determined from the undiluted citrate blood according to standard procedures. […]

[6] = Physical performance by spiro-ergometry (bicycle ergometer); format: in vivo, human; conditions: 4 weeks
Description: as §1

[7] = Performance quality: continuous attention, vigilance, cognitrone (Vienna Test system); format: in vivo, human; design: Continuous attention: DRT (mean value), after NADH / Cognitrone: DRT (mean), after NADH / Vigilance: correct reactions, after NADH / Vigilance: DRT (mean), after NADH: unit not given here
Description: The performance quality, reaction speed and constancy of attention also was tested in these athletes. The performance quality was assessed by the accuracy with which a task was done, i.e., generally in terms of the number of correct identifications of stimuli. Methods used for determination of performance quality were measurement of the continuous attention, vigilance, and the cognitrone program of the Vienna Test system (Dr. Schuhfried Ges.m.b.H., Austria). For examination of the physical performance, a bicycle ergometer (Oxycon-Alpha, Jager Inc., Vienna, Austria) was used. […] The volume and the intensity of the training and exercise program of the athletes was kept constant over that period.

[8] = tested on: NADH cytochrome C reductase; test: NADH cytochrome C reductase assay, rats before and after oral NADH; format: in vivo; design: Enzyme Activity after NADH intake: unit not given here
Description: as §2, §3, §4
Determination of enzymatic activity The specific activity of the enzyme species is expressed as nanomoles (nmol) of cytochrome C reduced per μL blood per 5 minutes. For quantitative analyses, a calibration curve with 0, 30, 50, 100, 130 nmol reduced cytochrome C concentrations is prepared. For calculation of the enzymatic activity expressed per blood cell, the number of red blood cells, white blood cells and IS platelets are determined. The cell counts of these cells can be determined from the undiluted citrate blood according to standard procedures.

[9] = tested on: NADH cytochrome C reductase; test: NADH cytochrome C reductase assay of whole blood, soccer players before and after oral NADH; format: in vivo, human; design: key to Enzyme Activity after NADH intake: nmol cytochrome C reduced per µL blood per 5 min
Description: as §2, §3, §4, §5

[10] = after 4 weeks of one 5-mg tablet NADH per day (n = 17)
[11] = after vs before 4 weeks of one 5-mg tablet NADH per day (n = 17)
[12] = after NADH, 1 tablet NADH (5 mg) per day
[13] = 4 weeks after intake of one 5-mg tablet NADH per day, n = 17
[14] = 4 weeks of one 5-mg tablet NADH per day vs before, n = 17
[15] = rats, per animal, one 2.5-mg tablet NADH daily for three months
[16] = soccer players, per subject, one 5-mg tablet NADH daily for one month

SMILES: C[n+]1ccc(-c2ccccc2)cc1 [MPP^+, 1-methyl-4-phenyl-pyridine]
- effect on complex I in the ETC [1]: inhibits

SMILES: CN1CC=C(c2ccccc2)CC1 [MPTP, 1-methyl-4-phenyl-1,2,3,6-tetrahydropyridine]
- effect on NADH cytochrome C reductase [2]: irreversibly inhibits and destroys

SMILES: NC(=O)C1=CN([C@@H]2O[C@H](COP(=O)(O)OP(=O)(O)OC[C@H]3O[C@@H](n4cnc5c(N)ncnc54)[C@H](O)[C@@H]3O)[C@@H](O)[C@H]2O)C=CC1 [NADH, reduced form of nicotinamide adenine dinucleotide]
- physical performance on the treadmill or bicycle ergometer [3]: improved
- Lactate Level 1 min. after maximum performance, after NADH, mean [4, 10]: 9.0
- Lactate Level 3 min. after maximum performance, after NADH, mean [4, 10]: 7.4
- Lactate Level 1 min. after maximum performance, Differences in percent, Dmax [4, 11]: 22.2%
- Lactate Level 1 min. after maximum performance, Differences in percent, Dmean [4, 11]: 10.0%
- Lactate Level 1 min. after maximum performance, Differences in percent, Dmed [4, 11]: 9.6%
- Lactate Level 1 min. after maximum performance, Differences in percent, Dmin [4, 11]: −7.3%
- Lactate Level 3 min. after maximum performance, Differences in percent, Dmax [4, 11]: 70.3%
- Lactate Level 3 min. after maximum performance, Differences in percent, Dmean [4, 11]: 17.2%
- Lactate Level 3 min. after maximum performance, Differences in percent, Dmed [4, 11]: −3.7%
- Lactate Level 3 min. after maximum performance, Differences in percent, Dmin [4, 11]: −22.5%
- % Difference in enzyme activity (after vs before NADH intake) ([5]; competitive cyclists, per subject, one 5-mg tablet NADH daily for one month): 50.00% (4×) and 57.10% and 46.70% (2×) and 76.90% and 47.10% (3×) and 64.30% and 60.00% and 61.50% and 53.30% and 58.30% and 41.20%
- Enzyme Activity after NADH intake ([5]; competitive cyclists, per subject, one 5-mg tablet NADH daily for one month, activity expressed as nmol cytochrome C reduced per μL blood per 5 minutes): 2.1 (2×) and 2.2 (3×) and 2.3 (3×) and 2.4 (4×) and 2.5 (3×) and 2.7 and 1.9
- endogenous NADH cytochrome C reductase activity ([5]; in nineteen of the twenty athletes, 5-mg tablet daily, one month): increase
- Hfmax, mean [6, 12]: 180.00
- Rmax, mean [6, 12]: 1.00
- VO2Max, mean [6, 12]: 4.98
- VO2Max/kg, mean [6, 12]: 71.20
- Vmax, mean [6, 12]: 163.00
- Wmax (maximum performance), mean [6, 12]: 340.00
- Wmax/kg, mean [6, 12]: 4.90
- physical performance ([6]; the nineteen athletes with increased enzyme activity, 5 mg NADH daily): improved
- Cognitrone: Correct reactions, after NADH [7, 13]: 190.10
- Cognitrone: DRT (mean), after NADH [7, 13]: 2.09
- Continuous attention: DRT (mean value), after NADH [7, 13]: 0.81
- Continuous attention: Dispersion, after NADH [7, 13]: 0.17
- Continuous attention: correct reactions, after NADH [7, 13]: 118.80
- Continuous attention: missed reactions, after NADH [7, 13]: 1.24
- Vigilance: DRT (mean), after NADH [7, 13]: 0.55
- Vigilance: Dispersion, after NADH [7, 13]: 0.11
- Vigilance: correct reactions, after NADH [7, 13]: 97.88
- Vigilance: incorrect reactions, after NADH [7, 13]: 1.24
- Cognitrone: Correct reactions, % alteration per person [7, 14]: 2.98%
- Cognitrone: DRT (mean), % alteration per person [7, 14]: −16.05%
- Cognitrone: working time (min), % alteration per person [7, 14]: −14.36%
- Continuous attention: DRT (mean value), % alteration per person [7, 14]: −6.48%
- Continuous attention: Dispersion, % alteration per person [7, 14]: −11.59%
- Continuous attention: correct reactions, % alteration per person [7, 14]: 1.42%
- Continuous attention: incorrect reactions, absolute alteration per person [7, 14]: −1.12
- Continuous attention: missed reactions, absolute alteration per person [7, 14]: −1.41
- Vigilance: DRT (mean), % alteration per person [7, 14]: 7.79%
- Vigilance: Dispersion, % alteration per person [7, 14]: 4.79%
- Vigilance: correct reactions, % alteration per person [7, 14]: 0.01%
- Vigilance: incorrect reactions, absolute alteration per person [7, 14]: −0.65
- Vigilance: missed reactions, absolute alteration per person [7, 14]: 0.24
- mental performance ([7]; the nineteen athletes with increased enzyme activity, 5 mg NADH daily, 4 weeks): improved
- enzymatic activity ([8]; all test animals (rats), 2.5-mg tablet daily, three months): increase
- % Difference in enzyme activity (after vs before NADH intake) [8, 15]: 17.1% and 13.5% (2×) and 11.4% and 7.5% and 13.8% (2×) and 20.0% and 9.6% and 12.5%
- Enzyme Activity after NADH intake [8, 15]: 0.41 (3×) and 0.42 (2×) and 0.39 and 0.43 (2×) and 0.45 (2×)
- endogenous NADH cytochrome C reductase activity ([9]; fifteen soccer players, 5-mg tablet daily, one month): increase
- % Difference in enzyme activity (after vs before NADH intake) [9, 16]: 20.00% (4×) and 8.30% and −8.30% and 0.00% (2×) and 33.00% and 16.00% and 7.10% (2×) and 162% and 75% and 6.60%
- Enzyme Activity after NADH intake [9, 16]: 1.2 and 1.3 (2×) and 1.6 (5×) and 1.4 (2×) and 1.1 and 1.5 (2×) and 2.1 (2×)
